Values of other authors, collected in patent publication US20240398820A1, “METHODS FOR TREATMENT OF PULMONARY HYPERTENSION” (Respira Therapeutics, Inc., priority 2023, published 2024).

How the values were obtained:
[1] = inhaled, following pulmonary administration
[2] = in vivo
[3] = human patients with PAH, 5 mg orally twice per day

- tmax [1]: ≤ 2 min
- clearance [2]: rapid clearance
Structure (SMILES): CCCc1nc(C)c2c(=O)nc(-c3cc(S(=O)(=O)N4CCN(CC)CC4)ccc3OCC)[nH]n12 [Vardenafil, 1-[[3-(1,4-dihydro-5-methyl-4-oxo-7-propylimidazo[5,1-f][1,2,4]triazin-2-yl)-4-ethoxyphenyl]sulfonyl]-4-ethyl-piperazine]
- dissociation rate: slow dissociation rate
- safety and efficacy in PAH [3]: safe and effective
